Experiment [1] deals with T1, isolated kinase domain of the human FLT3 receptor (a.a. 571-993) (Homo sapiens, UniProt P36888).
T1 construct: human FLT3 receptor (a.a. 571-993)
T1 sequence (P36888 571-993): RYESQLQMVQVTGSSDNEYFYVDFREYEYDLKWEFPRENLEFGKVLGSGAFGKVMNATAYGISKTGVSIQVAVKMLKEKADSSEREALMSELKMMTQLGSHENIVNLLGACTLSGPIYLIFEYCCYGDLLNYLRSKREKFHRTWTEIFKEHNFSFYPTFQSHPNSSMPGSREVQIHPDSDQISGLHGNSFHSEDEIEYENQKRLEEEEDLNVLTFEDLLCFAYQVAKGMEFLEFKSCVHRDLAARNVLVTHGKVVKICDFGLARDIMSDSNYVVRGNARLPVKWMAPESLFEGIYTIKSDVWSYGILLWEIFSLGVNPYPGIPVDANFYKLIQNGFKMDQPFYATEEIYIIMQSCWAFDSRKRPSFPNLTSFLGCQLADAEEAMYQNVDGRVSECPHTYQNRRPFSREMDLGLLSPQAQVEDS
Briefly: FLT3 fluorescence polarization kinase assay. To be noted: uncertainty ±10%. In kind it is biochemical. The text has this: The FLT3 FP assay utilizes the fluorescein-labeled phosphopeptide and the anti-phosphotyrosine antibody included in the Panvera Phospho-Tyrosine Kinase Kit (Green) supplied by Invitrogen. When FLT3 phosphorylates polyGlu4Tyr, the fluorescein-labeled phosphopeptide is displaced from the anti-phosphotyrosine antibody by the phosphorylated poly Glu4Tyr, thus decreasing the FP value. […] The kinase reaction is stopped with the addition of EDTA. The fluorescein-labeled phosphopeptide and the anti-phosphotyrosine antibody are added and incubated for 30 minutes at room temperature.

Experiment [2] has as its target T2, FLT ligand-induced wild-type FLT3 phosphorylation in Baf3 FLT3 cells (Homo sapiens, UniProt P36888).
T2 sequence (P36888 27-993): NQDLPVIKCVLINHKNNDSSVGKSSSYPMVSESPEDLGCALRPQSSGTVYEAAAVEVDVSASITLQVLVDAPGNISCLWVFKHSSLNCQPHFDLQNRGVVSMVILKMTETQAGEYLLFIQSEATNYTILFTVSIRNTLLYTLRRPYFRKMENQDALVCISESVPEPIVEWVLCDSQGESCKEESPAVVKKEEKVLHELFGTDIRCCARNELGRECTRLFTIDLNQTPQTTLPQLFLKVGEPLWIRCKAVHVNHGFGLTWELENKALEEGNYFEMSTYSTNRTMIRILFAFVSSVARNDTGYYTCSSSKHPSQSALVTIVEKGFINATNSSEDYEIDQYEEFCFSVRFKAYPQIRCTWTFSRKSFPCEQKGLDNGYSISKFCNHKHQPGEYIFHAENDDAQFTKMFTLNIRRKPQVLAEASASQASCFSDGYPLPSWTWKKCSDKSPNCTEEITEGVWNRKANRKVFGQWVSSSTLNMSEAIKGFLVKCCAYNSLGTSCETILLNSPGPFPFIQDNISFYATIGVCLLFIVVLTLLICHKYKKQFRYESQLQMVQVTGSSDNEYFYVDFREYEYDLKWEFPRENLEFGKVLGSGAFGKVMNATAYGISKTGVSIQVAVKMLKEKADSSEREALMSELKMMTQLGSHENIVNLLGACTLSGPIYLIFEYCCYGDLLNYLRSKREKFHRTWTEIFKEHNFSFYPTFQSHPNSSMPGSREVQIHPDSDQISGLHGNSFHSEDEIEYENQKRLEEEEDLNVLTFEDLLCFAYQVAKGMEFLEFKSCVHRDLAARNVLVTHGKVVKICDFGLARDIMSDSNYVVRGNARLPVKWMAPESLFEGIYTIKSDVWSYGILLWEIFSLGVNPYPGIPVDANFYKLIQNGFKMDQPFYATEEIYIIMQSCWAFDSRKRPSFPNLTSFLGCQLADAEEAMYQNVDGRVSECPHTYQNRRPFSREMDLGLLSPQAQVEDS
Briefly: Cell-based FLT3 receptor ELISA.
Procedure: Specific cellular inhibition of FLT ligand-induced wild-type FLT3 phosphorylation was measured in the following manner: Baf3 FLT3 cells overexpressing the FLT3 receptor were obtained from Dr. Michael Heinrich (Oregon Health and Sciences University).

In another experiment the test system is MV4-11 cells. Briefly: Inhibition of MV4-11 cell proliferation (CellTiterGlo). To be noted: Homo sapiens, MV4-11, 72 h, read-out: MV4-11 (uM).

The source of these data is patent US20060281755A1, “SYNERGISTIC MODULATION OF FLT3 KINASE USING AMINOPYRIMIDINES KINASE MODULATORS” (priority 2005, published 2006).

Each structure is given as a SMILES string. Where only a bound is given, the exact number is not on record here.

Procedure for MV4-11 cells: To measure total cell growth an equal volume of CellTiterGlo reagent was added to each well, according to the manufacturer's instructions, and luminescence was quantified.
MV4-11 cells express the FLT3 internal tandem duplication mutation, and thus are entirely dependent upon FLT3 activity for growth. […] In contrast, the Baf3 cell proliferation is driven by the cytokine IL-3 and thus are used as a non-specific toxicity control for test compounds.

Turning to `CO/N=C/c1c(N)ncnc1N1CCCN(C(=O)Nc2ccc(OC(C)C)cc2)CC1` [Compound 24, 4-[6-Amino-5-(methoxyimino-methyl)-pyrimidin-4-yl]-[1,4]diazepane-1-carboxylic acid (4-isopropoxy-phenyl)-amide], the IC50 in experiment [1] amounted to 122 nM; in experiment [2], 16 nM; in the experiment on MV4-11 cells, 0.66 µM.

On to `CCO/N=C/c1c(N)ncnc1N1CCN(C(=O)Nc2ccc(N3CCOCC3)cc2)CC1` [Compound 15, 4-[6-Amino-5-(ethoxyimino-methyl)-pyrimidin-4-yl]-piperazine-1-carboxylic acid (4-morpholin-4-yl-phenyl)-amide], for which the IC50 in experiment [1] was determined as 126 nM; in experiment [2], 735 nM; in the experiment on MV4-11 cells it was 0.35 µM.

As for `CCNC(=O)NCCO/N=C/c1c(N)ncnc1N1CCN(C(=O)Nc2ccc(OC(C)C)cc2)CC1` [Compound 26, 4-(6-Amino-5-{[2-(3-ethyl-ureido)-ethoxyimino]-methyl}-pyrimidin-4-yl)-piperazine-1-carboxylic acid (4-isopropoxy-phenyl)-amide], in the experiment on MV4-11 cells, the IC50 is greater than 1 µM.

As to `NCCO/N=C/c1c(N)ncnc1N1CCN(C(=O)Nc2ccc(N3CCOCC3)cc2)CC1` [Compound 32, 4-{6-Amino-5-[(2-amino-ethoxyimino)-methyl]-pyrimidin-4-yl}-piperazine-1-carboxylic acid (4-morpholin-4-yl-phenyl)-amide], the IC50 in experiment [1] amounted to 5150 nM; in experiment [2], 77 nM; in the experiment with MV4-11 cells, 0.79 µM.

On to `CO/N=C/c1c(N)ncnc1N1CCN(C(=O)Cc2ccc(C(C)C)cc2)CC1` [Compound 7, 4-Amino-6-{4-[2-(4-isopropyl-phenyl)-acetyl]-piperazin-1-yl}-pyrimidine-5-carbaldehyde O-methyl-oxime], for which the IC50 in experiment [1] came out at 14 nM; in experiment [2], 2 nM; in the experiment with MV4-11 cells, 0.024 µM.

For `NCCO/N=C/c1c(N)ncnc1N1CCN(C(=O)Nc2ccc(OC3CCC3)nc2)CC1` [Compound 31, 4-{6-Amino-5-[(2-amino-ethoxyimino)-methyl]-pyrimidin-4-yl}-piperazine-1-carboxylic acid (6-cyclobutoxy-pyridin-3-yl)-amide], the IC50 in experiment [1] came out at 1450 nM; in experiment [2], 206 nM; in the experiment with MV4-11 cells, 1.3 µM.

As to `CS(=O)(=O)NCCO/N=C/c1c(N)ncnc1N1CCN(C(=O)Nc2ccc(OC3CCC3)nc2)CC1` [Compound 33, 4-{6-Amino-5-[(2-methanesulfonylamino-ethoxyimino)-methyl]-pyrimidin-4-yl}-piperazine-1-carboxylic acid (6-cyclobutoxy-pyridin-3-yl)-amide], the IC50 in experiment [1] is 1150 nM; in the experiment with MV4-11 cells it was 2.8 µM.

As to `CCO/N=C\c1c(N)ncnc1N1CCN(C(=O)Cc2ccc(C(C)C)cc2)CC1` [Compound 14, 4-Amino-6-{4-[2-(4-isopropyl-phenyl)-acetyl]-piperazin-1-yl}-pyrimidine-5-carbaldehyde O-ethyl-oxime (syn-configuration for —C═N—O—)], the IC50 stood at 24 nM in experiment [1], 158 nM in experiment [2] and 0.029 µM in the experiment on MV4-11 cells.

Consider `Nc1ncnc(N2CCN(C(=O)Nc3ccc(OC4CCC4)nc3)CC2)c1/C=N/OCCN1CCOCC1` [Compound 30, 4-{6-Amino-5-[(2-morpholin-4-yl-ethoxyimino)-methyl]-pyrimidin-4-yl}-piperazine-1-carboxylic acid (6-cyclobutoxy-pyridin-3-yl)-amide], for which the IC50 was found to be 1740 nM in experiment [1] and 2.5 µM in the experiment on MV4-11 cells.

In the case of `CC(C)Oc1ccc(NC(=O)N2CCN(c3ncnc(N)c3/C=N/OCCN)CC2)cc1` [Compound 25, 4-{6-Amino-5-[(2-amino-ethoxyimino)-methyl]-pyrimidin-4-yl}-piperazine-1-carboxylic acid (4-isopropoxy-phenyl)-amide], the figures for the IC50 (in experiment [1]; with MV4-11 cells) were 1150 nM and 2 µM, respectively.

As for `CCO/N=C/c1c(N)ncnc1N1CCN(C(=O)Cc2ccc(C(C)C)cc2)CC1` [Compound 13, 4-Amino-6-{4-[2-(4-isopropyl-phenyl)-acetyl]-piperazin-1-yl}-pyrimidine-5-carbaldehyde O-ethyl-oxime (anti-configuration for —C═N—O—)], the IC50 in experiment [1] is 8 nM; in experiment [2], 116 nM; in the experiment on MV4-11 cells it was 0.013 µM.

For the compound `NCCO/N=C/c1c(N)ncnc1N1CCN(C(=O)Nc2ccc(N3CCCC3)cc2)CC1` [Compound 34, 4-{6-Amino-5-[(2-amino-ethoxyimino)-methyl]-pyrimidin-4-yl}-piperazine-1-carboxylic acid (4-pyrrolidin-1-yl-phenyl)-amide], the IC50 in experiment [1] came out at 1510 nM; with MV4-11 cells, 2.5 µM.

As for `Nc1ncnc(N2CCN(C(=O)Nc3ccc(N4CCOCC4)cc3)CC2)c1/C=N/OCCN1CCOCC1` [Compound 29, 4-{6-Amino-5-[(2-morpholin-4-yl-ethoxyimino)-methyl]-pyrimidin-4-yl}-piperazine-1-carboxylic acid (4-morpholin-4-yl-phenyl)-amide], the IC50 was greater than 10000 nM in experiment [1] and 3 µM in the experiment with MV4-11 cells.
